Measurements from patent US20250346585A1 (Alexion Pharmaceuticals, Inc., priority 2022, published 2025).
pIC50: −log10 of the molar value.

target: Human complement C1s enzyme (Homo sapiens (Human), UniProt P09871); assay: Human C1s enzyme assay; format: biochemical; conditions: Human C1s enzyme assay of Example 3; read-out: IC50 (Stars)
In short: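 IC50 derived by nonlinear regression of rate versus concentration, with rate taken from A405 kinetics (30 s intervals, 30 min) after adding 100 μM each Z-L-Lys-SBzl and DTNB. C1s from human serum, 1.16 nM, exposed to compound for 5 min at RT beforehand; buffer 50 mM Tris, 1 M NaCl, pH 7.5.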

Sequence of Human complement C1s enzyme (P09871 438-688 limits assumed): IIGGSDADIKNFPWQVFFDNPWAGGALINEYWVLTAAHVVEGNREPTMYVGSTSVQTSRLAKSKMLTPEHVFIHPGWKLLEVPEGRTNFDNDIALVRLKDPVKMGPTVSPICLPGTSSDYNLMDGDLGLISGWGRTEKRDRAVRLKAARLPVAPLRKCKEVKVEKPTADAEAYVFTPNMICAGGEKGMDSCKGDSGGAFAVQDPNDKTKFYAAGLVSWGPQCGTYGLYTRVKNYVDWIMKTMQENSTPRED
Sequence of Human complement C1s enzyme (P09871 16-437 partner limits assumed): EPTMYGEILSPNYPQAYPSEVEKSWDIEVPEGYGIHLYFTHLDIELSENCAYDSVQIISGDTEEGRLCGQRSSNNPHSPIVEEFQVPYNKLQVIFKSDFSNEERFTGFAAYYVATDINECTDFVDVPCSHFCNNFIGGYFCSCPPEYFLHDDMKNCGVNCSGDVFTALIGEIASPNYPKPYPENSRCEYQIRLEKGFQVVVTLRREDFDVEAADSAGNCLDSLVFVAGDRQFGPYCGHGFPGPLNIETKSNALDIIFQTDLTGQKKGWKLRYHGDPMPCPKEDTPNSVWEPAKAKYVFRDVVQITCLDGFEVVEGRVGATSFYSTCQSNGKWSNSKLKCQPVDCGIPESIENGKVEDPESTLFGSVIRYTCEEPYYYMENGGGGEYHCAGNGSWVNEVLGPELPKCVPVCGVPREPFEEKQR

pIC50	SMILES
> 7.00	C[C@@H](NC(=O)[C@@H]1C[C@@H](C2OCCCO2)CN1C(=O)CNC(=O)c1ccc(Oc2ccc(F)cc2)cc1)c1cc(C(=N)N)cs1 (relative stereo) [Compound 160, (2S,4R*)—N—((R)-1-(4-carbamimidoylthiophen-2-yl)ethyl)-4-(1,3-dioxan-2-yl)-1-((4-(4-fluorophenoxy)benzoyl)glycyl)pyrrolidine-2-carboxamide]
> 7.00	Cc1cc(C(=O)NCC(=O)N2C[C@H](OC(F)F)C[C@H]2C(=O)N[C@H](C)c2cc(C(=N)N)cs2)ccc1Oc1ccccc1 [Compound 24, (2S,4R)—N—((R)-1-(4-carbamimidoylthiophen-2-yl)ethyl)-4-(difluoromethoxy)-1-((3-methyl-4-phenoxybenzoyl)glycyl)pyrrolidine-2-carboxamide]
> 7.00	N=C(N)c1csc(CNC(=O)[C@@H]2CC3(CN2C(=O)CNC(=O)c2ccc(-c4cc5ccccc5s4)cc2)OCCO3)c1 [Compound 145]
> 7.00	C[C@@H](NC(=O)[C@@H]1C[C@](F)(CN(C)C)CN1C(=O)CNC(=O)c1ccc2c(c1)-c1ccccc1C2(F)F)c1cc(C(=N)N)cs1 [Compound 36, (2S,4S)—N—((R)-1-(4-carbamimidoylthiophen-2-yl)ethyl)-1-((9,9-difluoro-9H-fluorene-3-carbonyl)glycyl)-4-((dimethylamino)methyl)-4-fluoropyrrolidine-2-carboxamide]
> 7.00	COC[C@@]1(F)C[C@@H](C(=O)N[C@H](C)c2cc(C(=N)N)cs2)N(C(=O)CNC(=O)c2ccc(Oc3ccc(C(F)(F)F)cc3)cc2)C1 [Compound 18, (2S,4R)—N—((R)-1-(4-carbamimidoylthiophen-2-yl)ethyl)-4-fluoro-4-(methoxymethyl)-1-((4-(4-(trifluoromethyl)phenoxy)benzoyl)glycyl)pyrrolidine-2-carboxamide]
> 7.00	COC[C@@H]1C[C@@H](C(=O)N[C@H](C)c2cc(C(=N)N)cs2)N(C(=O)CNC(=O)c2ccc(Oc3ccc(F)cc3)cc2)C1 (relative stereo) [Compound 79, (2S,4R*)—N—((R)-1-(4-carbamimidoylthiophen-2-yl)ethyl)-1-((4-(4-fluorophenoxy)benzoyl)glycyl)-4-(methoxymethyl)pyrrolidine-2-carboxamide]
> 7.00	C[C@@H](NC(=O)[C@@H]1C[C@]2(C)C[C@@H]2N1C(=O)CNC(=O)c1ccc2c(c1)-c1ccccc1C2(F)F)c1ccc(C(=N)N)s1 [Compound 29, (1S,3S,5S)—N—((R)-1-(5-carbamimidoylthiophen-2-yl)ethyl)-2-((9,9-difluoro-9H-fluorene-3-carbonyl)glycyl)-5-methyl-2-azabicyclo[3.1.0]hexane-3-carboxamide]
> 7.00	C[C@@H](NC(=O)[C@@H]1C[C@@H](OC(F)(F)F)CN1C(=O)CNC(=O)c1ccc2c(c1)-c1ccccc1C2(F)F)c1cc(C(=N)N)cs1 [Compound 159, (2S,4R)—N—((R)-1-(4-carbamimidoylthiophen-2-yl)ethyl)-1-((9,9-difluoro-9H-fluorene-3-carbonyl)glycyl)-4-(trifluoromethoxy)pyrrolidine-2-carboxamide]
> 7.00	C[C@@H](NC(=O)[C@@H]1C[C@]2(C)C[C@@H]2N1C(=O)CNC(=O)c1ccc2c(c1)-c1ccccc1C2(F)F)c1cc(C(=N)N)cs1 [Compound 4, (1S,3S,5S)—N—((R)-1-(4-carbamimidoylthiophen-2-yl)ethyl)-2-((9,9-difluoro-9H-fluorene-3-carbonyl)glycyl)-5-methyl-2-azabicyclo[3.1.0]hexane-3-carboxamide]

SMILES	pIC50
C[C@@H](NC(=O)[C@@H]1CC2(CN1C(=O)CNC(=O)c1ccc3c(c1)-c1ccccc1C3(F)F)OCCO2)c1cc(/C(N)=N\C(=O)Oc2ccccc2)cs1 [Compound 149, phenyl ((E)-amino(5-((R)-1-((S)-7-((9,9-difluoro-9H-fluorene-3-carbonyl)glycyl)-1,4-dioxa-7-azaspiro[4.4]nonane-8-carboxamido)ethyl)thiophen-3-yl)methylene)carbamate]	> 7.00

same assay, conditions: Human complement C1s enzyme 1.16 nM, substrate Z-L-Lys-SBzl 100 μM, assay of Example 3; read-out: IC50 (Stars)

pIC50	SMILES
> 7.00	C[C@@H](NC(=O)[C@@H]1C[C@@H](c2ccncc2)CN1C(=O)CNC(=O)c1ccc2c(c1)-c1ccccc1C2(F)F)c1cc(C(=N)N)cs1 [Compound 377, (2S,4S)—N—((R)-1-(4-carbamimidoylthiophen-2-yl)ethyl)-1-((9,9-difluoro-9H-fluorene-3-carbonyl)glycyl)-4-(pyridin-4-yl)pyrrolidine-2-carboxamide]
> 7.00	COC[C@@]1(F)C[C@@H](C(=O)N[C@H](C)c2cc(C(=N)N)cs2)N(C(=O)CNC(=O)c2ccc3sc4ccccc4c3c2)C1 [Compound 394, (2S,4R)—N—((R)-1-(4-carbamimidoylthiophen-2-yl)ethyl)-1-((dibenzo[b,d]thiophene-2-carbonyl)glycyl)-4-fluoro-4-(methoxymethyl)pyrrolidine-2-carboxamide]
> 7.00	C[C@@H](NC(=O)[C@@H]1C[C@]2(CN(C)C)C[C@@H]2N1C(=O)CNC(=O)c1ccc2c(c1)-c1ccccc1C2(F)F)c1cc(C(=N)N)cs1 [Compound 304, (1S,3S,5S)—N—((R)-1-(4-carbamimidoylthiophen-2-yl)ethyl)-2-((9,9-difluoro-9H-fluorene-3-carbonyl)glycyl)-5-((dimethylamino)methyl)-2-azabicyclo[3.1.0]hexane-3-carboxamide]
> 7.00	C[C@H]1C[C@@H](C(=O)N[C@H](C)c2cc(C(=N)N)cs2)N(C(=O)CNC(=O)c2ccc3oc4ccccc4c3c2)C1 [Compound 226, (2S,4S)—N—((R)-1-(4-carbamimidoylthiophen-2-yl)ethyl)-1-((dibenzo[b,d]furan-2-carbonyl)glycyl)-4-methylpyrrolidine-2-carboxamide]
< 6.00	Nc1c(Nc2csc(CNC(=O)[C@@H]3CC4(CN3C(=O)CNC(=O)c3ccc(Oc5ccc(F)cc5)cc3)OCCO4)c2)c(=O)c1=O [Compound 319, (S)-N-((4-((2-amino-3,4-dioxocyclobut-1-en-1-yl)amino)thiophen-2-yl)methyl)-7-((4-(4-fluorophenoxy)benzoyl)glycyl)-1,4-dioxa-7-azaspiro[4.4]nonane-8-carboxamide]
< 6.00	NC(=O)CCNc1csc(CNC(=O)[C@@H]2CC3(CN2C(=O)CNC(=O)c2ccc(Oc4ccc(F)cc4)cc2)OCCO3)c1 [Compound 310, (S)-N-((4-((3-amino-3-oxopropyl)amino)thiophen-2-yl)methyl)-7-((4-(4-fluorophenoxy)benzoyl)glycyl)-1,4-dioxa-7-azaspiro[4.4]nonane-8-carboxamide]
> 7.00	COC[C@@]1(F)C[C@@H](C(=O)N[C@H](C)c2cc(C(=N)N)cs2)N(C(=O)CNC(=O)c2ccc3oc4ccccc4c3c2)C1 [Compound 222, (2S,4R)—N—((R)-1-(4-carbamimidoylthiophen-2-yl)ethyl)-1-((dibenzo[b,d]furan-2-carbonyl)glycyl)-4-fluoro-4-(methoxymethyl)pyrrolidine-2-carboxamide]
> 7.00	N=C(N)c1csc(CNC(=O)[C@@H]2CC3(CN2C(=O)CN2CCc4cc(-c5ccccc5)ccc4C2=O)OCCO3)c1 [Compound 256, (S)—N-((4-carbamimidoylthiophen-2-yl)methyl)-7-(2-(1-oxo-6-phenyl-3,4-dihydroisoquinolin-2(1H)-yl)acetyl)-1,4-dioxa-7-azaspiro[4.4]nonane-8-carboxamide]
> 7.00	N=C(N)c1csc([C@@H](CO)NC(=O)[C@@H]2C[C@@H](OC(F)F)CN2C(=O)CNC(=O)c2ccc3c(c2)C(F)(F)c2ccccc2-3)c1 [Compound 396, (2S,4R)—N—((R)-1-(4-carbamimidoylthiophen-2-yl)-2-hydroxyethyl)-1-((9,9-difluoro-9H-fluorene-2-carbonyl)glycyl)-4-(difluoromethoxy) pyrrolidine-2-carboxamide]
> 7.00	C[C@@H](NC(=O)[C@@H]1C[C@]2(Cn3cncn3)C[C@@H]2N1C(=O)CNC(=O)c1ccc2c(c1)-c1ccccc1C2(F)F)c1cc(C(=N)N)cs1 [Compound 281, (1S,3S,5S)-5-((1H-1,2,4-triazol-1-yl)methyl)-N—((R)-1-(4-carbamimidoylthiophen-2-yl)ethyl)-2-((9,9-difluoro-9H-fluorene-3-carbonyl)glycyl)-2-azabicyclo[3.1.0]hexane-3-carboxamide]
> 7.00	CC(C)S(=O)(=O)c1ccc(-c2ccc(C(=O)NCC(=O)N3CC4(C[C@H]3C(=O)NCc3cc(C(=N)N)cs3)OCCO4)cc2)cc1 [Compound 216, (S)—N-((4-carbamimidoylthiophen-2-yl)methyl)-7-((4′-(isopropylsulfonyl)-[1,1′-biphenyl]-4-carbonyl)glycyl)-1,4-dioxa-7-azaspiro[4.4]nonane-8-carboxamide]
> 7.00	CCCCCCOC(=O)/N=C(/N)c1csc([C@@H](C)NC(=O)[C@@H]2C[C@](F)(CF)CN2C(=O)CNC(=O)c2ccc(Oc3ccc(F)cc3)cc2)c1 [Compound 234, hexyl ((E)-amino(5-((R)-1-((2S,4R)-4-fluoro-4-(fluoromethyl)-1-((4-(4-fluorophenoxy)benzoyl)glycyl)pyrrolidine-2-carboxamido)ethyl)thiophen-3-yl)methylene)carbamate]

same assay, conditions: Human complement C1s enzyme 1.16 nM, substrate Z-L-Lys-SBzl; assay of Example 3; read-out: IC50 (Stars)

pIC50	SMILES
> 7.00	C[C@@H](NC(=O)[C@@H]1C[C@]2(Cc3ncno3)C[C@@H]2N1C(=O)CNC(=O)c1ccc2c(c1)-c1ccccc1C2(F)F)c1cc(C(=N)N)cs1 [Compound 420, (1S,3S,5S)-5-((1,2,4-oxadiazol-5-yl)methyl)-N—((R)-1-(4-carbamimidoylthiophen-2-yl)ethyl)-2-((9,9-difluoro-9H-fluorene-3-carbonyl)glycyl)-2-azabicyclo[3.1.0]hexane-3-carboxamide]
